The first assay addresses T1, TRPC3 (Homo sapiens, UniProt Q13507).
T1 sequence (Q13507 1-921): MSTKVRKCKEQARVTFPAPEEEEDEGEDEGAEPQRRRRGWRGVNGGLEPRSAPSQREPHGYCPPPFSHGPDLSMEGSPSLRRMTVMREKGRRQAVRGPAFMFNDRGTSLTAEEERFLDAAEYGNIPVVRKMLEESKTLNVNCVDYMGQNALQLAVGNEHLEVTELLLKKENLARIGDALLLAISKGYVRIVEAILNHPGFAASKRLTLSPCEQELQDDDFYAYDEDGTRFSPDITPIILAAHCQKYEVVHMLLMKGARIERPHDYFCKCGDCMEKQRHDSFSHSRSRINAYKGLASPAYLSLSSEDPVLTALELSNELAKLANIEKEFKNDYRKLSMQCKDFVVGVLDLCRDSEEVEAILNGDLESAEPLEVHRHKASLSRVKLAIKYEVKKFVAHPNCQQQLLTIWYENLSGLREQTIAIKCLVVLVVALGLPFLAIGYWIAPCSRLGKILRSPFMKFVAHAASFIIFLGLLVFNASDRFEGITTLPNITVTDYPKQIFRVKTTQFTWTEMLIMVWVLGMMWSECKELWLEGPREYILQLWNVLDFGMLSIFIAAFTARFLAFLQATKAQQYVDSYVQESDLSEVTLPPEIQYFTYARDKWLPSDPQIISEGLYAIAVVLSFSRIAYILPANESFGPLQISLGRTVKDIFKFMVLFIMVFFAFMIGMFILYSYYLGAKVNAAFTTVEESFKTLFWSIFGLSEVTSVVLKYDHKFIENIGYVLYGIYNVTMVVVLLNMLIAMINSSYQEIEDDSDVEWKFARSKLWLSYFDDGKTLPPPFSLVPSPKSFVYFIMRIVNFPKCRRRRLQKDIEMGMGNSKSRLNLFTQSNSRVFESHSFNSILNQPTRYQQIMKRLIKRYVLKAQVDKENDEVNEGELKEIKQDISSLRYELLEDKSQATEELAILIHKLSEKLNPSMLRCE
Briefly: whole-cell patch clamp of HEK293 cells transfected with hTRPC3, currents activated by GSK1702934A. It is filed as cell-based. Further details: expressed in transfected cells; host or cells: HEK293 (CRL-1573), transient transfection, pMO vector. To be noted: 10 μM compound in presence of agonist GSK1702934A; HEK293 whole-cell peak current; read-out: hTRPC3 % Inhibition at 10 μM (mean ± SEM). How it is done:
Human embryonic kidney 293 (HEK293; catalog number CRL-1573) cells were cultured in Dulbecco's modified Eagle's medium (Invitrogen) supplemented with 10% fetal bovine serum and 1% penicillin-streptomycin at 37° C. and 5% CO2. Constructs cloned in pMO (a pcDNA3-modified vector) were co-transfected with GFP-pMO, using Lipofectamine 2000 (Invitrogen) according to the manufacturer's instructions. Macroscopic currents in the whole-cell patch clamp configuration were recorded 18-24 h post-transfection. The extracellular solution contained 140 mM NaCl, 6 mM KCl, 2 mM MgCl2, 10 mM HEPES, and 10 mM glucose (pH 7.4). Pipettes were made of borosilicate glass (outer diameter, 1.5 mm; inner diameter, 1.10 mm; Sutter Instruments) and fire-polished with a resistance between 2.8 and 4.0 megaohms when filled with an intracellular solution that contained 140 mM CsCl, 5 mM EGTA, and 10 mM HEPES, pH 7.2. Currents were recorded with a Multiclamp 700B amplifier (Molecular Devices) using a 1-s ramp from −100 to 100 mV. Agonist and antagonists perfused were dissolved in the bath solution prior experiments: TRP channel agonists Allyl isothiocyanate (AITC; TRPA1), capsaicin (TRPV1), and menthol (TRPM8) were obtained from Sigma, GSK1016790A (TRPV4) from Cayman chemicals, and GSK1702934A (TRPC3, TRPC6 and TRPC7) from Tocris Bioscience. Antagonist Pyr3 was obtained from Tocris Bioscience, all other antagonists were synthesized in house. Data were acquired with a sampling rate of 20 kHz, low-pass filtered (10 kHz), and analyzed offline using Clampfit v10.4.2.0 (Molecular Devices).
Electrophysiology results were expressed as means±SD. Data were plotted, and sigmoidal fitting was done using OriginPro (from OriginLab), with the following Boltzmann function:
Using the patch clamp technique in the whole-cell configuration, compounds were screened by challenging hTRPC3 overexpressing HEK293 cells with GSK1702934A to activate TRPC3 and each of the synthesized compounds (10 μM) individually in the presence of the agonist.
To avoid tachyphylaxis and determine the IC50 of compound 22, each point of the dose response curve (FIG. 1B) was done individually on a cell and exchanging coverslips between cells. […] FIGS. 1D-1I show the inhibition of TRPC3-mediated currents by compound 22 and Pyr3 (serving as the reference control). […] Similar results were obtained when OAG was used as the agonist (data not shown).
In general terms: The patch-clamp technique gives a direct electrical read-out from membranes.
With `CCNC(=O)c1cn(-c2ccc(-n3ccc(Cl)c(Cl)c3=O)cc2)nc1C(F)(F)F` [Compound 49, 1-(4-(3,4-dichloro-2-oxopyridin-1(2H)-yl)phenyl)-N-ethyl-3-(trifluoromethyl)-1H-pyrazole-4-carboxamide], the inhibition (usually the change of the read-out against control, counted positive when it falls) at 10 µM amounted to 97.23 ± 0.89%.
On the same count and under the same terms, in the case of `CCNC(=O)c1cnn(-c2ccc(-n3ccc(Cl)c(Cl)c3=O)cc2)c1` [Compound 50, 1-(4-(3,4-dichloro-2-oxopyridin-1(2H)-yl)phenyl)-N-ethyl-1H-pyrazole-4-carboxamide] it was 98.08 ± 0.85%.
On to `CCNC(=O)c1cnn(-c2ccc(-n3ccc(Cl)c(Cl)c3=O)cc2)c1Cl` [Compound 51, 5-chloro-1-(4-(3,4-dichloro-2-oxopyridin-1(2H)-yl)phenyl)-N-ethyl-1H-pyrazole-4-carboxamide], for which the inhibition at 10 µM stood at 72.3 ± 2.88%.
As to `CCNC(=O)c1cnn(-c2ccc(-n3ccc(Cl)c(Cl)c3=O)cc2)c1C#N` [Compound 52, 5-cyano-1-(4-(3,4-dichloro-2-oxopyridin-1(2H)-yl)phenyl)-N-ethyl-1H-pyrazole-4-carboxamide], the inhibition at 10 µM worked out at 88.8 ± 6.37%.
On the same count and under the same terms, in the case of `CCC(=O)Nc1cnn(-c2ccc(-n3ccc(Cl)c(Cl)c3=O)cc2)c1C(F)(F)F` [Compound 58, N-(1-(4-(3,4-dichloro-2-oxopyridin-1(2H)-yl)phenyl)-5-(trifluoromethyl)-1H-pyrazol-4-yl)propionamide] it was 86 ± 2.8%.
Still for that read-out and setting: under `CCNC(=O)c1ncn(-c2ccc(-n3ccc(Cl)c(Cl)c3=O)cc2)c1C(F)(F)F` [Compound 59, 1-(4-(3,4-dichloro-2-oxopyridin-1(2H)-yl)phenyl)-N-ethyl-5-(trifluoromethyl)-1H-imidazole-4-carboxamide] stands 95.9 ± 3.72%.
Same read-out and setting: in the case of `CCNC(=O)c1nnn(-c2ccc(-n3ccc(Cl)c(Cl)c3=O)cc2)c1C(F)(F)F` [Compound 61, 1-(4-(3,4-dichloro-2-oxopyridin-1(2H)-yl)phenyl)-N-ethyl-5-(trifluoromethyl)-1H-1,2,3-triazole-4-carboxamide] it was 47.1 ± 8.29%.
Regarding `CCNC(=O)c1nn(-c2ccc(-n3ccc(Cl)c(Cl)c3=O)cc2)nc1C(F)(F)F` [Compound 63, 2-(4-(3,4-dichloro-2-oxopyridin-1(2H)-yl)phenyl)-N-ethyl-5-(trifluoromethyl)-2H-1,2,3-triazole-4-carboxamide], the inhibition at 10 µM stood at 86.9 ± 3.83%.
The same measure, in the same setting: under `CCNC(=O)c1sc(-c2ccc(-n3ccc(Cl)c(Cl)c3=O)cc2)nc1C(F)(F)F` [Compound 65, 2-(4-(3,4-dichloro-2-oxopyridin-1(2H)-yl)phenyl)-N-ethyl-4-(trifluoromethyl)thiazole-5-carboxamide] stands 54.9 ± 4.61%; under `CC(=O)c1cnn(-c2ccc(-n3ccc(Cl)cc3=O)cc2)c1C(F)(F)F` [Compound 66, 1-(4-(4-acetyl-5-(trifluoromethyl)-1H-pyrazol-1-yl)phenyl)-4-chloropyridin-2(1H)-one], 60.4 ± 5.12%; under `CC(=O)c1cnn(-c2ccc(-n3ccc(Cl)c(Cl)c3=O)cc2)c1C(F)(F)F` [Compound 67, 1-(4-(4-acetyl-5-(trifluoromethyl)-1H-pyrazol-1-yl)phenyl)-3,4-dichloropyridin-2(1H)-one], 88.7 ± 2.83%.
Still for that read-out and setting: in the case of `CCCC(=O)c1cnn(-c2ccc(-n3ccc(Cl)c(Cl)c3=O)cc2)c1C(F)(F)F` [Compound 69, 1-(4-(4-butyryl-5-(trifluoromethyl)-1H-pyrazol-1-yl)phenyl)-3,4-dichloropyridin-2(1H)-one] it was 63.4 ± 4.83%.
For `CC(=O)c1cnn(-c2ccc(-n3ccc(C)c(Cl)c3=O)cc2)c1C(F)(F)F` [Compound 71, 1-(4-(4-acetyl-5-(trifluoromethyl)-1H-pyrazol-1-yl)phenyl)-3-chloro-4-methylpyridin-2(1H)-one], the inhibition at 10 µM was 57.8 ± 8.74%.
Still for that read-out and setting: in the case of `CC(=O)c1cnn(-c2ccc(-n3cc(Cl)c(C)c(Cl)c3=O)cc2)c1C(F)(F)F` [Compound 72, 1-(4-(4-acetyl-5-(trifluoromethyl)-1H-pyrazol-1-yl)phenyl)-3,5-dichloro-4-methylpyridin-2(1H)-one] it was 52.1 ± 8.41%; in that of `CS(=O)(=O)c1cnn(-c2ccc(-n3ccc(Cl)c(Cl)c3=O)cc2)c1C(F)(F)F` [Compound 73, 3,4-Dichloro-1-(4-(4-(methylsulfonyl)-5-(trifluoromethyl)-1H-pyrazol-1-yl)phenyl)pyridine-2(1H)-one], 72.7 ± 7.96%; in that of `CCNCc1cnn(-c2ccc(-n3ccc(Cl)c(Cl)c3=O)cc2)c1C(F)(F)F` [Compound 74, 3,4-dichloro-1-(4-(4-((ethylamino)methyl)-5-(trifluoromethyl)-1H-pyrazol-1-yl)phenyl)pyridin-2(1H)-one], 97.96 ± 0.83%.
As to `CCCC(N)c1cnn(-c2ccc(-n3ccc(Cl)c(Cl)c3=O)cc2)c1C(F)(F)F` (stereo not drawn) [Compound 76, 1-(4-(4-(1-aminobutyl)-5-(trifluoromethyl)-1H-pyrazol-1-yl)phenyl)-3,4-dichloropyridin-2(1H)-one], the inhibition at 10 µM was determined as 33 ± 5.58%.
The same measure, in the same setting: in the case of `CCOCc1cnn(-c2ccc(-n3ccc(Cl)c(Cl)c3=O)cc2)c1C(F)(F)F` [Compound 78, 3,4-dichloro-1-(4-(4-(ethoxymethyl)-5-(trifluoromethyl)-1H-pyrazol-1-yl)phenyl)pyridin-2(1H)-one] it was 68.3 ± 2.11%.
Same read-out and setting: under `CCNC(=O)c1cnn(-c2ccc(NC(=O)C(Cl)=C(Cl)Cl)cc2)c1C(F)(F)F` [Compound 79, N-ethyl-1-(4-(2,3,3-trichloroacrylamido)phenyl)-5-(trifluoromethyl)-1H-pyrazole-4-carboxamide] stands 23.2 ± 1.23%.

The same assay, now with this note: agonist GSK1702934A; HEK293 whole-cell patch clamp; read-out: hTRPC3 IC50 (μM, mean ± SEM).
For `CCNC(=O)c1cn(-c2ccc(-n3ccc(Cl)c(Cl)c3=O)cc2)nc1C(F)(F)F` [Compound 49, 1-(4-(3,4-dichloro-2-oxopyridin-1(2H)-yl)phenyl)-N-ethyl-3-(trifluoromethyl)-1H-pyrazole-4-carboxamide], the 50% inhibitory concentration (IC50) (as a rule, the point on the concentration scale where inhibition reaches its midpoint) came to 1.1 ± 0.24 µM.
Take `CCNC(=O)c1cnn(-c2ccc(-n3ccc(Cl)c(Cl)c3=O)cc2)c1` [Compound 50, 1-(4-(3,4-dichloro-2-oxopyridin-1(2H)-yl)phenyl)-N-ethyl-1H-pyrazole-4-carboxamide]: the IC50 was 2.56 ± 0.52 µM.
Same read-out and setting: under `CCNC(=O)c1ncn(-c2ccc(-n3ccc(Cl)c(Cl)c3=O)cc2)c1C(F)(F)F` [Compound 59, 1-(4-(3,4-dichloro-2-oxopyridin-1(2H)-yl)phenyl)-N-ethyl-5-(trifluoromethyl)-1H-imidazole-4-carboxamide] stands 0.87 ± 0.17 µM.
Same read-out and setting: in the case of `CCNCc1cnn(-c2ccc(-n3ccc(Cl)c(Cl)c3=O)cc2)c1C(F)(F)F` [Compound 74, 3,4-dichloro-1-(4-(4-((ethylamino)methyl)-5-(trifluoromethyl)-1H-pyrazol-1-yl)phenyl)pyridin-2(1H)-one] it was 0.09 ± 0.02 µM.

A further assay addresses T1, TRPC3.
Assay: not given
The following applies: literature ref 21; cited from earlier work.
`O=C(Nc1ccc(-n2ncc(C(=O)O)c2C(F)(F)F)cc1)C(Cl)=C(Cl)Cl` [Pyr8]: the TRPC3 inhibition result was “little TRPC3 inhibition”.

Source of the values: US20230265068A1, “TRANSIENT RECEPTOR POTENTIAL CANONICAL 3 INHIBITORS AND METHODS OF USE THEREOF” (University of Tennessee Research Foundation, priority 2020, published 2023).
